For this assay, the target named is β2-adrenoceptor (Homo sapiens, UniProt P07550). Description: β2-adrenoceptor binding potency, classical filtration binding assay. The text has this:
Accordingly the invention also provides a compound of formula I in free or salt form for use as a pharmaceutical.

Like-named read-outs stand apart in the source and are kept apart here.

β2-adrenoceptor, sequence (P07550 whole entry, species assumed): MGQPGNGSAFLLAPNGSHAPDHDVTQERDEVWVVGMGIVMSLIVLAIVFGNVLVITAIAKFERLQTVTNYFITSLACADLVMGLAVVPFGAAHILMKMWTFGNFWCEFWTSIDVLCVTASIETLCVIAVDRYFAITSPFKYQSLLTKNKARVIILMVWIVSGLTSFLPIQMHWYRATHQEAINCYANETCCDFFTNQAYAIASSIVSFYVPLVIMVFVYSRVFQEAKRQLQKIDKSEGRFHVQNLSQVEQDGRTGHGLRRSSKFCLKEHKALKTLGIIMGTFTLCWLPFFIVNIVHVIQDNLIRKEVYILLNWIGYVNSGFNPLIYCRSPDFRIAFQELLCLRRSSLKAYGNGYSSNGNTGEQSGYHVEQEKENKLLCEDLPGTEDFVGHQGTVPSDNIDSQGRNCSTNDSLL

One may read the Ki as the equilibrium dissociation constant of an inhibitor or competing ligand from its target. `COc1ccc(C[C@@H](C)NCC(O)c2ccc(O)c3[nH]c(=O)sc23)cc1` (some centres unmarked) [Example 3] came in with a Ki of 1.6 nM.

Turning to `O=c1[nH]c2c(O)ccc(C(O)CNCCc3ccc(OCCCCc4ccccc4)cc3)c2s1` (centres unmarked) [Example 1, 4-hydroxy7-(1-hydroxy-2-{2-[4-(4-phenyl-butoxy)-phenyl]-ethylamino}-ethyl)-3H-benzothiazol-2-one], the Ki (read-out: Ki (β2)) worked out at 0.3 nM.

These data come from patent US20060106075A1, “Benzothiazole derivatives having beta-2-adrenoreceptor agonist activity” (priority 2002, published 2006).
